In patent publication EP0471345B1, “Determination of biogenous amines” (BOEHRINGER MANNHEIM GMBH, priority 1990, dated 1992):

Assays:
Assay in all cases: competitive ELISA: relative affinity and cross-reactivity of monoclonal antibodies against Histamin-ITCB
[1] = system: monoklonaler Antikörper 1.17.44 (ECACC 90071901) gegen Histamin-ITCB; settings: amount of Histamin-ITCB for 50 % signal drop (50 % IC) in ELISA; antibody 1.17.44
Description: (§1) Zur Ermittlung der Relativen Affinität werden Kompetitionskurven mit dem homologen Antigen ermittelt und ausgewertet.
(§2) Mikrotiterplatten werden mit 100 »l pro well einer Lösung aus 10 »g Thermo-SA-Streptavidin/ml (Herstellung nach EP-A 0269 092) in Puffer pH 9,6 eine Stunde bei Raumtemperatur beschichtet. Die Platten werden mit 0,9% Natriumchloridlösung gewaschen. […] Darauf werden 100 »l Probe in PBS eine Stunde bei Raumtemperatur inkubiert und erneut mit 0,9 % Natriumchloridlösung gewaschen. Es folgt eine weitere Inkubation (1 Stunde bei Raumtemperatur) mit 100 »l/well einer Lösung von 150 mU/ml eines Schaf-anti-Maus-IgG-Peroxidase-Konjugats (Boehringer Mannheim GmbH, Best.-Nr. 821489) in PBS/O,5 % RSA. Nach einem weiteren Waschschritt mit 0,9 % Natriumchloridlösung wird die Peroxidaseaktivität durch Zugabe von 100 »l/well einer ABTS®-Lösung (100 mg ABTS; 3,25 mmol/l Natriumperborat; 39,8 mmol/l Citronensäure; 60 mmol/l Natriumphosphat; pH 4,4-4,5) 30 min bei Raumtemperatur und anschließender Extinktionsmessung bei 405 nm bestimmt.
(§3) Die Kreuzreaktion wurde anschließend mit folgender Formel berechnet: [formula] C = Konzentration des jeweiligen Antigens, die zur Erreichung von 50 % des maximalen Signals erforderlich ist.

[2] = system: monoklonaler Antikörper 1.25.53 gegen Histamin-ITCB; settings: amount of Histamin-ITCB for 50 % signal drop (50 % IC) in ELISA; antibody 1.25.53
Description: as §1, §2, §3

[3] = system: monoklonaler Antikörper 1.36.59 gegen Histamin-ITCB; settings: amount of Histamin-ITCB for 50 % signal drop (50 % IC) in ELISA; antibody 1.36.59
Description: as §1, §2, §3

[4] = system: monoklonaler Antikörper 1.47.74 (ECACC 90071902) gegen Histamin-ITCB; settings: amount of Histamin-ITCB for 50 % signal drop (50 % IC) in ELISA; antibody 1.47.74
Description: as §1, §2, §3

[5] = system: monoklonaler Antikörper 1.54.95 gegen Histamin-ITCB; settings: amount of Histamin-ITCB for 50 % signal drop (50 % IC) in ELISA; antibody 1.54.95
Description: as §1, §2, §3

[6] = system: monoklonaler Antikörper 1.68.168 gegen Histamin-ITCB; settings: amount of Histamin-ITCB for 50 % signal drop (50 % IC) in ELISA; antibody 1.68.168
Description: as §1, §2, §3

[7] = system: monoklonaler Antikörper 1.83.201 gegen Histamin-ITCB; settings: amount of Histamin-ITCB for 50 % signal drop (50 % IC) in ELISA; antibody 1.83.201
Description: as §1, §2, §3

[8] = system: monoklonaler Antikörper 1.97.235 gegen Histamin-ITCB; settings: amount of Histamin-ITCB for 50 % signal drop (50 % IC) in ELISA; antibody 1.97.235
Description: as §1, §2, §3

## O=C(O)c1cccc(NC(=S)NCCc2c[nH]cn2)c1 [Histamin-ITCB, N-(3-Carboxyphenyl)-N'-[2-(4-imidazolyl)ethyl]thioharnstoff]
[1]
  Relative Affinität zu Histamin-ITCB: 0,5 ng/ml
[2]
  Relative Affinität zu Histamin-ITCB: 1 ng/mL
[3]
  Relative Affinität zu Histamin-ITCB: 1 ng/mL
[4]
  Relative Affinität zu Histamin-ITCB: 0,8 ng/ml
[5]
  Relative Affinität zu Histamin-ITCB: 1,5 ng/ml
[6]
  Relative Affinität zu Histamin-ITCB: 1,4 ng/ml
[7]
  Relative Affinität zu Histamin-ITCB: 0,75 ng/ml
[8]
  Relative Affinität zu Histamin-ITCB: 1,5 ng/ml
